# Columns and labels:
# [1] = Solubility of drugs in oils/excipients; assay type: physicochemical; details: shake flask, 25 °C, 48 h, HPLC, n = 3; Figure S1
# [2] = ref Hu et al., 2012; cited from earlier work
structure (smiles),measurement,setting,value
"CC(=O)O[C@@]12CO[C@@H]1C[C@H](O)[C@@]1(C)C(=O)[C@H](O)C3=C(C)[C@@H](OC(=O)[C@H](O)[C@@H](NC(=O)OC(C)(C)C)c4ccccc4)C[C@@](O)([C@@H](OC(=O)c4ccccc4)[C@H]21)C3(C)C [DTX, Docetaxel]",Solubility among the oils employed (ranking),[1],highest solubility of 131.62 ± 17.68 in Capryol 90
same,oral bioavailability of DTX,[2],~5%

# From article PMC6534241 (Drug Delivery, 2019)
